Assay [1] has as its system breast cancer cell line T-47D. Description: Cell growth assay with breast cancer cell line T-47D. The format is cell-based. The following applies: T-47D cells, PrestoBlue Cell Viability reagent, read-out: IC50 inhibition of cell growth. The protocol:
[…] of the complete medium was then gently dispersed over the surface of the cell layer for several times. The cell concentration was adjusted to 1×10^4 cells/mL with the complete medium. A 100 μL aliquot of the cell suspension was added to the well of a 96-well plate, and the plate was incubated overnight at 37° C. under 5% CO2 with saturated humidity. On the next day, the medium in each well was aspirated and replaced with a 100 μL aliquot of pre-warmed complete medium at 37° C. in the presence or absence of the test compounds at various concentrations from 0-100 μM. The test compounds were dissolved in DMSO, and the final DMSO concentration in the cell culture was no more than 1%. The plate was incubated for 72 hours at 37° C. under 5% CO2 with saturated humidity. At end of the cell culture a 10 μL aliquot of PrestoBlue® Cell Viability reagent (ThermoFisher Scientific) was added into the well and the plate was incubated at 37° C. for 30 min. The absorption at 570 and 600 nm were measured with a SpectraMax Microplate reader (Molecular Devices), The absorbance at […] was normalized to that at 600 nm.

The target in assay [2] is T1, PDGFRα(V561D) (Homo sapiens, UniProt P16234, V561D).
T1 construct: purchased Carna Biosciences
Description: Off-chip Mobility Shift Assay (MSA) kinase inhibition. The format is biochemical. Conditions: inhibitor concentration 0.01 μM. On the procedure:
(§1) Off-chip Mobility Shift Assay (MSA) by Cama Biosciences, Inc (Natick, Mass.) a used for measuring the kinase activity and inhibition. • 1) The 5 μL of x4 compound solution, 5 μL of x4 Substrate/ATP/Metal solution, and 10 μL of x2 kinase solution were prepared with assay buffer (20 mM HEPES, 0.01% Triton X100, 2 mM DTT, pH 7.5) and mixed and incubated in a well of polypropylene 384 well microplate for 1 or 5 hour(s)* at room temperature. (*; depending on kinase) • 2) 70 μL of Termination Buffer (QuickScout Screening Assist A; Cama Biosciences) was added to the welt • 3) The reaction mixture was applied to LabChip system (Perkin Elmer), and the product and substrate peptide peaks were separated and quantitated. • 4) The kinase reaction was evaluated by the product ratio calculated from peak heights of product (P) and substrate (S) peptides (P/(P+S)). • 5) The reaction conditions were followed according to assay protocols of Ca n Biosciences, Inc (BMA 3F, 1-5-5 Minatojima-Minamimachi, Chuo-ku, Kobe 650-0047, Japan; www.carnabio.com). • 6 Data analysis: The readout value of reaction control (complete reaction mixture) was set as a 0% inhibition, and the readout value of background (Enzyme (−)) was set as a 100% inhibition, then the percent inhibition of each test solution was calculated, […]

For assay [3], the target named is T2, PDGFRα(T674I) (Homo sapiens, UniProt P16234, T674I).
T2 construct: purchased Carna Biosciences
The description is as above. The format is biochemical. Conditions: inhibitor concentration 0.01 μM. On the procedure:
as §1

The target in assay [4] is T3, PDGFRα(D842V) (Homo sapiens, UniProt P16234, D842V).
T3 construct: purchased Carna Biosciences
Described as above. The assay is classed as biochemical. Conditions: inhibitor concentration 0.01 μM. The protocol: as §1

The target in assay [5] is T4, JAK3 (Homo sapiens, UniProt P52333).
T4 construct: purchased Carna Biosciences
T4 sequence (P52333 1-1124): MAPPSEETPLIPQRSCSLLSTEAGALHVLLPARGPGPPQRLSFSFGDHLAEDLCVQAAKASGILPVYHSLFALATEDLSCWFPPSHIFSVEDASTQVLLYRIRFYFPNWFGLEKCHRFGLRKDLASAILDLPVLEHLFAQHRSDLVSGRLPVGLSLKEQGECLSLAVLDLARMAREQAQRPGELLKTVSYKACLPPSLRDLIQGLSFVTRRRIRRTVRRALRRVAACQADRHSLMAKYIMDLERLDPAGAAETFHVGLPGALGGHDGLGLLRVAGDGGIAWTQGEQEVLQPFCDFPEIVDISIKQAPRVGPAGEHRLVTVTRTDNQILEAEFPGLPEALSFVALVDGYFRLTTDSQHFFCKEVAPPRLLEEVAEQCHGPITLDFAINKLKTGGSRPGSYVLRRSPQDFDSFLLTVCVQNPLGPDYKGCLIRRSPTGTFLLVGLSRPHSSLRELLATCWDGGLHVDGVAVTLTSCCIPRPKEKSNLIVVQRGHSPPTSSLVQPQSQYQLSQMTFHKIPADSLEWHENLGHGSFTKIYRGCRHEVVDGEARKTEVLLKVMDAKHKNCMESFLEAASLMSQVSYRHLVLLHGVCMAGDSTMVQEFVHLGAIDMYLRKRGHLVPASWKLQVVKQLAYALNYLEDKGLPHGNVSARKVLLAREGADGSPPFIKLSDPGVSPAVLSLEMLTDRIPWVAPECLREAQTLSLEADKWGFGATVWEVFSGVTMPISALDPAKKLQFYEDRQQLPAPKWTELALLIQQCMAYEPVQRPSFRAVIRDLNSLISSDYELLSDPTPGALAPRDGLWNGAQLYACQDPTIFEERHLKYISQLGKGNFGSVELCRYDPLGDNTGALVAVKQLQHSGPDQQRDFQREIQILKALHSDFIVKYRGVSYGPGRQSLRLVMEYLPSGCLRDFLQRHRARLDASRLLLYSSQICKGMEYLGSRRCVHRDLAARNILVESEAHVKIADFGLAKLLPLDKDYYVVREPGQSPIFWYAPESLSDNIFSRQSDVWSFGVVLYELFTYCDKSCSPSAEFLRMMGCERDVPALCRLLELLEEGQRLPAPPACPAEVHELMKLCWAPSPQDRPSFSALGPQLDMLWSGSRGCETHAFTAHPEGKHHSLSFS
Described as above. The format is biochemical. Conditions: inhibitor concentration 0.01 μM. The protocol: (§2) Off-chip Mobility Shift Assay (MSA) by Cama Biosciences, Inc (Natick, Mass.) a used for measuring the kinase activity and inhibition. • 1) The 5 μL of x4 compound solution, 5 μL of x4 Substrate/ATP/Metal solution, and 10 μL of x2 kinase solution were prepared with assay buffer (20 mM HEPES, 0.01% Triton X100, 2 mM DTT, pH 7.5) and mixed and incubated in a well of polypropylene 384 well microplate for 1 or 5 hour(s)* at room temperature.

Assay [6] concerns the target T5, FGR (Homo sapiens, UniProt P09769).
T5 construct: purchased Carna Biosciences
The assay is described as above. The format is biochemical. The following applies: inhibitor concentration 0.01 μM. The protocol:
as §2

Assay [7] deals with T6, JAK1 (Homo sapiens, UniProt P23458).
T6 construct: purchased Carna Biosciences
Described as above. The assay is classed as biochemical. The following applies: inhibitor concentration 0.01 μM. On the procedure:
as §2

Assay [8] has as its target T7, BRAF (Homo sapiens, UniProt P15056).
T7 construct: purchased Carna Biosciences
Described as above. The format is biochemical. The following applies: inhibitor concentration 0.01 μM. The protocol: as §2

Assay [9] addresses T8, SRM (Homo sapiens, UniProt Q9H3Y6).
T8 construct: purchased Carna Biosciences
The description is as above. The assay is classed as biochemical. The following applies: inhibitor concentration 0.01 μM. The protocol: as §2

Assay [10] concerns the target T9, KIT(D816V) (Homo sapiens, UniProt P10721, D816V).
T9 construct: purchased Carna Biosciences
Described as above. The assay is classed as biochemical. The following applies: inhibitor concentration 0.01 μM. The protocol:
as §2

For assay [11], the target named is T10, BRK (Homo sapiens, UniProt Q13882).
T10 construct: purchased Carna Biosciences
The description is as above. The assay is classed as biochemical. The following applies: inhibitor concentration 0.01 μM. The protocol:
as §2

The target of assay [12] is T11, JAK2 (Homo sapiens, UniProt O60674).
T11 construct: purchased Carna Biosciences
The assay is described as above. The assay is classed as biochemical. The following applies: inhibitor concentration 0.01 μM. The protocol: as §2

The target of assay [13] is T12, SRC (Homo sapiens, UniProt P12931).
T12 construct: purchased Carna Biosciences
The description is as above. The assay is classed as biochemical. The following applies: inhibitor concentration 0.01 μM. The protocol: as §2

Assay [14] has as its target T13, LCK (Homo sapiens, UniProt P06239).
T13 construct: purchased Carna Biosciences
The description is as above. The assay is classed as biochemical. The following applies: inhibitor concentration 0.01 μM. On the procedure:
as §2

In assay [15] the target is T14, BRAF(V600E) (Homo sapiens, UniProt P15056, V600E).
T14 construct: purchased Carna Biosciences
The assay is described as above. The following applies: inhibitor concentration 0.01 μM. The format is biochemical. On the procedure:
as §2

The target in assay [16] is T15, PDGFRβ (Homo sapiens, UniProt P09619).
T15 construct: purchased Carna Biosciences
Described as above. The format is biochemical. The following applies: inhibitor concentration 0.01 μM. The protocol:
as §2

The target in assay [17] is T16, RAF1 (Homo sapiens, UniProt P04049).
T16 construct: purchased Carna Biosciences
The assay is described as above. The assay is classed as biochemical. The following applies: inhibitor concentration 0.01 μM. The protocol: as §2

Assay [18] concerns the target T17, KIT (Homo sapiens, UniProt P10721).
T17 construct: purchased Carna Biosciences
Described as above. The assay is classed as biochemical. The following applies: inhibitor concentration 0.01 μM. The protocol: as §2

Assay [19] deals with T18, PDGFRα (Homo sapiens, UniProt P16234).
T18 construct: purchased Carna Biosciences
Described as above. Conditions: inhibitor concentration 0.01 μM. The assay is classed as biochemical. On the procedure: as §2

The target in assay [20] is T19, KIT(V560G) (Homo sapiens, UniProt P10721, V560G).
T19 construct: purchased Carna Biosciences
The description is as above. The following applies: inhibitor concentration 0.01 μM. The assay is classed as biochemical. On the procedure: as §2

Assay [21] deals with T20, KIT(T670I) (Homo sapiens, UniProt P10721, T670I).
T20 construct: purchased Carna Biosciences
The assay is described as above. The assay is classed as biochemical. Conditions: inhibitor concentration 0.01 μM. On the procedure:
as §2

Where two headings read alike, the source gives them in different places.

T11 sequence (O60674 whole entry): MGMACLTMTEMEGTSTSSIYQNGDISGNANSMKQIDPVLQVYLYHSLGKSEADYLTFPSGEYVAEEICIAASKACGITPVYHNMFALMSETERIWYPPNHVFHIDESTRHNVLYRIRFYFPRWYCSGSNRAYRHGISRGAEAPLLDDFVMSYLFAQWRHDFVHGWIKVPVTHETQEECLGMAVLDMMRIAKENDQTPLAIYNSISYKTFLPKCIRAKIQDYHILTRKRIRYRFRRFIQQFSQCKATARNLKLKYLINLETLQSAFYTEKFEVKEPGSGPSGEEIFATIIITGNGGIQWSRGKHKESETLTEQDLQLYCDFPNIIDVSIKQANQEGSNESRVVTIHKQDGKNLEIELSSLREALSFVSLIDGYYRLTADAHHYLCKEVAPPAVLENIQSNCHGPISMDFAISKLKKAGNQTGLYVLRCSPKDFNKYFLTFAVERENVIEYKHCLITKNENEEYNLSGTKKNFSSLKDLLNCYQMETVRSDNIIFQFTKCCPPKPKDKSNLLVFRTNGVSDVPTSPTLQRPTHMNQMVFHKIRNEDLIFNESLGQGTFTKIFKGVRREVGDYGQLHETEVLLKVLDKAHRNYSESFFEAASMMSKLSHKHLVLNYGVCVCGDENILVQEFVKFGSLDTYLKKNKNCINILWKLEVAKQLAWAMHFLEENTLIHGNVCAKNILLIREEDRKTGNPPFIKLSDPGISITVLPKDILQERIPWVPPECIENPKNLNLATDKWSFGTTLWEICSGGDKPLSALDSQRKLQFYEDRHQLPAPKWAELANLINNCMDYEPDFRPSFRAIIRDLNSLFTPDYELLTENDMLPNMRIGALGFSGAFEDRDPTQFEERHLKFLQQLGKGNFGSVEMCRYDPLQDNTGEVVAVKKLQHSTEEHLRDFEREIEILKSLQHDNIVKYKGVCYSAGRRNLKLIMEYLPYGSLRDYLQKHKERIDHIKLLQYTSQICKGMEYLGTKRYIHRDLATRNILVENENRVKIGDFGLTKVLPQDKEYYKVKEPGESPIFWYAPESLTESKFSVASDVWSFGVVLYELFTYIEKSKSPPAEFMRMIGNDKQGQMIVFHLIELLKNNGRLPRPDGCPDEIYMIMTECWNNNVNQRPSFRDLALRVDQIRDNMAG
T10 sequence (Q13882 whole entry): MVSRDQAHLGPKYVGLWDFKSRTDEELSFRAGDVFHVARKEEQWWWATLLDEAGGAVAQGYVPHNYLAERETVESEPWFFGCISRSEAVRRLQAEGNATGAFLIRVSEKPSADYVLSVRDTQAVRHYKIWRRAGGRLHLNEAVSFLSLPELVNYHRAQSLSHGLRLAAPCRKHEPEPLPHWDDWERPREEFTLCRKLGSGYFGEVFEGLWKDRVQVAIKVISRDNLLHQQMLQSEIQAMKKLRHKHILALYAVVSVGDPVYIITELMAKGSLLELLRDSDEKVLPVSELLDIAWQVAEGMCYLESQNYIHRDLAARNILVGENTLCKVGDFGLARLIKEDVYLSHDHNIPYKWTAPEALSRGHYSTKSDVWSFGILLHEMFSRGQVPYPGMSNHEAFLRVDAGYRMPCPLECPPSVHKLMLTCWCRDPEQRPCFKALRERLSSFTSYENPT
T3 sequence (P16234 24-1089 D842V): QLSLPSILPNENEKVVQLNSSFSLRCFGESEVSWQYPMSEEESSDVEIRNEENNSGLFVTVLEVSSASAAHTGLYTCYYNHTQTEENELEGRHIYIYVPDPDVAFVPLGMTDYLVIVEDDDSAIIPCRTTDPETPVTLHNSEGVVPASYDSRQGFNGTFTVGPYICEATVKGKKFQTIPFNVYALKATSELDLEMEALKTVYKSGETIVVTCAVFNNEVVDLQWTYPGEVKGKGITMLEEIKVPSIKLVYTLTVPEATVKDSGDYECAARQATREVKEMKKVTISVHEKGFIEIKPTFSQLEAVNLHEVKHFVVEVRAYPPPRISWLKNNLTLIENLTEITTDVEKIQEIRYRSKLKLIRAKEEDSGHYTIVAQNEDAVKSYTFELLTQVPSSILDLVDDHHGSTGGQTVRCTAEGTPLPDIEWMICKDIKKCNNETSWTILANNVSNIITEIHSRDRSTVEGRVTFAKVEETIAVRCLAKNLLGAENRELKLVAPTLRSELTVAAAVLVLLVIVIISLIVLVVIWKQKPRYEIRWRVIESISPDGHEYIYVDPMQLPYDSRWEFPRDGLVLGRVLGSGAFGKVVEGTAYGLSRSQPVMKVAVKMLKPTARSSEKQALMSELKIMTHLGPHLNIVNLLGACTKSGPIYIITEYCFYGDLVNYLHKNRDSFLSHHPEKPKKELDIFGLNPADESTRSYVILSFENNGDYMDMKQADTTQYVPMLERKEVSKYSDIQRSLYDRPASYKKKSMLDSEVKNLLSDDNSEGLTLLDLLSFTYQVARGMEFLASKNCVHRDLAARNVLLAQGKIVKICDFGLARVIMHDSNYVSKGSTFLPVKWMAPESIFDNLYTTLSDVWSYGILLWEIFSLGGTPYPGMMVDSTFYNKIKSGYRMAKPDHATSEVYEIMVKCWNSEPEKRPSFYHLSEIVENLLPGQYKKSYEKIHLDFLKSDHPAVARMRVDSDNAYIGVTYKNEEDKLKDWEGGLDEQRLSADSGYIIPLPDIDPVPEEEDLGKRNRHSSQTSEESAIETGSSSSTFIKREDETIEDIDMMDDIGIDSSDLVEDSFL
T12 sequence (P12931 whole entry): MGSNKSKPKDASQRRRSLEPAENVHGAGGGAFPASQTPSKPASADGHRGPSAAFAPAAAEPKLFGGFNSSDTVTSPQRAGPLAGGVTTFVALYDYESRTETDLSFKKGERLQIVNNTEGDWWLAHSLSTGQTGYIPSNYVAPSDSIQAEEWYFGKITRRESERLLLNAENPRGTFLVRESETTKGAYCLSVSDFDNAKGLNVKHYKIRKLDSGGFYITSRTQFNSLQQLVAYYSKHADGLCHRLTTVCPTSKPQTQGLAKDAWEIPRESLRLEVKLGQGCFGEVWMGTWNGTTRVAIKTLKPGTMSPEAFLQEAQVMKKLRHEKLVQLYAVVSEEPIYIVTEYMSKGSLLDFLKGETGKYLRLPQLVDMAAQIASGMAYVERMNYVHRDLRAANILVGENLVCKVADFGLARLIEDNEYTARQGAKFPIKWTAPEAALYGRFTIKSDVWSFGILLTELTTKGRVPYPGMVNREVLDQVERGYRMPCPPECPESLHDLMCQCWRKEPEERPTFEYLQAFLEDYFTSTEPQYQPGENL
T19 sequence (P10721 26-976 V560G): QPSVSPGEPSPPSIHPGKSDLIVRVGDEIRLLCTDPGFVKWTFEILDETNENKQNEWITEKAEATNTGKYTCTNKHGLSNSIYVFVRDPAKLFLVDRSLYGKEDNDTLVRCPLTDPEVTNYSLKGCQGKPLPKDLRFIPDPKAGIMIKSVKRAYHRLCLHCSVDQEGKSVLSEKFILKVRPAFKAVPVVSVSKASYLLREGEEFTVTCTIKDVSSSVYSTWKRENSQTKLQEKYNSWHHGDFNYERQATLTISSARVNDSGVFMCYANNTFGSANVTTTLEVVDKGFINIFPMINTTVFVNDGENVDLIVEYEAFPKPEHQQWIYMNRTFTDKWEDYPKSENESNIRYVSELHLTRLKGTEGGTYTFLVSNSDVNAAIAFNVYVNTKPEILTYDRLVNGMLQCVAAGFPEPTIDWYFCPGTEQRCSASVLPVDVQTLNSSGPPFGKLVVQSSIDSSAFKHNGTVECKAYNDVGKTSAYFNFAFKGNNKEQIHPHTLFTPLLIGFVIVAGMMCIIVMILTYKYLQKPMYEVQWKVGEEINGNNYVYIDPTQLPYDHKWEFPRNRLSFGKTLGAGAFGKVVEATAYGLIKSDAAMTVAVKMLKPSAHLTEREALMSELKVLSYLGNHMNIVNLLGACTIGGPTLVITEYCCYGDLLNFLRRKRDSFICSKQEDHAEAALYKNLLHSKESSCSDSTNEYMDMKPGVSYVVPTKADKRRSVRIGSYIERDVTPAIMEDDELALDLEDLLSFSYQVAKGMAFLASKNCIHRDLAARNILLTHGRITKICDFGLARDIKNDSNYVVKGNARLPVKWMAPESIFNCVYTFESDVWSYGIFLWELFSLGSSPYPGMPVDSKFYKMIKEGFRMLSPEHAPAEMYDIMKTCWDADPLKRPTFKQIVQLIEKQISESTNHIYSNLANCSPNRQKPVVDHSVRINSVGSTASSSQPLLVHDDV
T13 sequence (P06239 whole entry): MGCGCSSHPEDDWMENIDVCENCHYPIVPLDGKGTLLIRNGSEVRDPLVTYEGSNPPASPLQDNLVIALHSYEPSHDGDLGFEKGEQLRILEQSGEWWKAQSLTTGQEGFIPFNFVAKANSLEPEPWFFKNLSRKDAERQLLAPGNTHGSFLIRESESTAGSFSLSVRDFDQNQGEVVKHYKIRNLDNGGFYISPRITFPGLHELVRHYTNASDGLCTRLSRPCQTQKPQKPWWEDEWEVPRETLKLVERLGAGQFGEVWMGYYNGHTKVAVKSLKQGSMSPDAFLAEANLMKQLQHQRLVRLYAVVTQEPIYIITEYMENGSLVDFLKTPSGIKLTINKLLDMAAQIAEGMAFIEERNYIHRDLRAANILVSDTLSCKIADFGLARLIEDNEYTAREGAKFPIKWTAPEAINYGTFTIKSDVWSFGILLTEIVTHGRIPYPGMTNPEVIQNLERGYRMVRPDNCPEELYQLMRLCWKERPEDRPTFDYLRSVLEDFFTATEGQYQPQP
T2 sequence (P16234 24-1089 T674I): as the sequence (P16234 24-1089 D842V) above, with T651I, V819D counted along it
T18 sequence (P16234 24-1089): as the sequence (P16234 24-1089 D842V) above, with V819D counted along it
T9 sequence (P10721 26-976 D816V): as the sequence (P10721 26-976 V560G) above, with G535V, D791V counted along it
T1 sequence (P16234 24-1089 V561D): as the sequence (P16234 24-1089 D842V) above, with V538D, V819D counted along it
T20 sequence (P10721 26-976 T670I): as the sequence (P10721 26-976 V560G) above, with G535V, T645I counted along it
T17 sequence (P10721 26-976): as the sequence (P10721 26-976 V560G) above, with G535V counted along it

Take `O=C(c1c(F)ccc(NS(=O)(=O)CCO)c1F)c1c[nH]c2ncc(-c3ccc(Cl)cc3)cc12` [200-149, N-[3-[5-(4-chlorophenyl)pyrrolo[2,3-b]pyridine-3-carbonyl]-2,4-difluorophenyl]-2-hydroxyethanesulfonamide]: in assay [1] (Homo sapiens, T47D, 72 hours), the IC50 (commonly the concentration needed to halve the response being measured) is less than 20 µM.

As to `COCCCS(=O)(=O)Nc1ccc(F)c(C(=O)c2c[nH]c3ncc(-c4ccc(Cl)cc4)cc23)c1F` [200-123, N-[3-[5-(4-chlorophenyl)pyrrolo[2,3-b]pyridine-3-carbonyl]-2,4-difluoro-phenyl]-3-methoxypropane-1-sulfonamide], the inhibition at 0.01 µM in [2], in [3], in assay [4], in assay [5], in [6] and in assay [7] was less than 20% each time. Besides, the inhibition (usually the percentage by which the read-out fell short of the control) at 0.01 µM is less than 20% in [8]; more than 20% in assay [9]; less than 20% in [10]; more than 20% in assay [11]; less than 20% in assay [12]; less than 20% in assay [13]. For the same molecule, the inhibition at 0.01 µM was more than 20% in assay [14]; more than 20% in assay [15]; less than 20% in assay [16]; more than 20% in assay [17]; less than 20% in [18]; less than 20% in assay [19]. For the same molecule, the inhibition at 0.01 µM in [20] and in assay [21] was less than 20% in each case. Further, the IC50 in [1] (Homo sapiens, T47D, 72 h) is less than 20 µM.

As for `C/C=C/S(=O)(=O)Nc1ccc(F)c(C(=O)c2c[nH]c3ncc(-c4ccc(Cl)cc4)cc23)c1F` [200-93a], the inhibition at 0.01 µM in assay [2], in [3], in assay [4], in assay [5], in assay [6] and in assay [7] was more than 30% throughout. Besides, the inhibition at 0.01 µM in [8], in [9], in assay [10], in assay [11], in assay [12] and in assay [13] was more than 30% each time. Moreover, the inhibition at 0.01 µM in [14] was more than 30%; in assay [15], more than 30%; in assay [16] it was more than 20%; in assay [17], more than 30%; in assay [18], more than 30%; in assay [19] it was more than 20%. The inhibition at 0.01 µM in assay [20] and in assay [21] was more than 30% in each case. Moreover, the IC50 in assay [1] (72 hours) was more than 20 µM.

Regarding `COCCS(=O)(=O)Nc1ccc(F)c(C(=O)c2c[nH]c3ncc(-c4ccc(Cl)cc4)cc23)c1F` [200-139, N-[3-[5-(4-chlorophenyl)pyrrolo[2,3-b]pyridine-3-carbonyl]-2,4-difluorophenyl]-2-methoxyethanesulfonamide], the inhibition at 0.01 µM in assay [2], in assay [3], in assay [4], in [5], in [6] and in [7] was less than 20% throughout. For the same molecule, the inhibition at 0.01 µM in [8] was less than 20%; in [9], more than 20%; in [10] it was less than 20%; in assay [11] it was more than 20%; in [12], less than 20%; in assay [13], less than 20%. The inhibition at 0.01 µM in assay [14] was more than 20%; in assay [15] it was less than 20%; in assay [16], less than 20%; in [17] it was more than 20%; in assay [18] it was less than 20%; in [19], more than 20%. The inhibition at 0.01 µM in assay [20] and in assay [21] was less than 20% throughout. In assay [1] (Homo sapiens, T47D, 72 h), the IC50 was less than 20 µM.

The record behind these values is patent US10106538B2, “Inhibitors of protein kinases” (PRINCETON DRUG DISCOVERY INC, priority 2015, dated 2018).
